{"source": "ChEMBL document CHEMBL1201862", "about": "“PubChem BioAssay data set” (2004)", "key": {"[1]": {"biological_target": "T1, Calpain-2 catalytic subunit (Sus scrofa, UniProt P43367)", "T1 sequence (P43367 whole entry)": "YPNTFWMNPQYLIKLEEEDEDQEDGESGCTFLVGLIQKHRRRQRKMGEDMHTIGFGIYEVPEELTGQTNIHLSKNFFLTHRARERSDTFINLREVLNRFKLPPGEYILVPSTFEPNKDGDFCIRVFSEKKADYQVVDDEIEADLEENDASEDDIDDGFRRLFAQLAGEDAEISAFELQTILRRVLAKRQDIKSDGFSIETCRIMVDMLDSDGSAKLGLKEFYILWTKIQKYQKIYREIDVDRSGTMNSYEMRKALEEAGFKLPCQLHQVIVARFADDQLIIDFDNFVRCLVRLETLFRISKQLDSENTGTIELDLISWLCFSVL", "assay": "pig calpain II inhibitor potency, dose response, biochemical, fluorogenic peptide substrate (AID 1420)", "type": "functional"}, "[2]": {"biological_target": "T2, Rac GTPase-activating protein 1 (Homo sapiens, UniProt Q9H0H5)", "T2 sequence (Q9H0H5 whole entry)": "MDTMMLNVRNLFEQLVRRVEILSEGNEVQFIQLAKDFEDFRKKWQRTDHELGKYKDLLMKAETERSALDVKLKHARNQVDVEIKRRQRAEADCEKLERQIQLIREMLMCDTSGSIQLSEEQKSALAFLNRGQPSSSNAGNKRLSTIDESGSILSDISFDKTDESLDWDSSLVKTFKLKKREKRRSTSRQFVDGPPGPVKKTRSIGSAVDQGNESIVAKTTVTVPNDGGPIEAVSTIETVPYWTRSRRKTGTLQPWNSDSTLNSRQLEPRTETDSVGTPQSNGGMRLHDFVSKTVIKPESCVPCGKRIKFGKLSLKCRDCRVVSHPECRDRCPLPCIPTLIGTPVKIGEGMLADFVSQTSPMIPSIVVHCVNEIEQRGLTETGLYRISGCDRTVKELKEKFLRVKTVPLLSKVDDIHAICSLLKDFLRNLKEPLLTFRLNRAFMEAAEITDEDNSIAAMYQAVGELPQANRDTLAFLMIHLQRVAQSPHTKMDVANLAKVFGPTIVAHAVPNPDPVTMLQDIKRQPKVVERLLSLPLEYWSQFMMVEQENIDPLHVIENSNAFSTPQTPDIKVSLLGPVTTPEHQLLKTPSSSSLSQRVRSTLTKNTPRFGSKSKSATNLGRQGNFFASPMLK", "assay": "MgcRacGAP GTPase-activating activity inhibitors, confirmation, biochemical, ADP Hunter fluorescence, primary and confirmatory (AID 624330)", "type": "functional"}, "[3]": {"biological_target": "T3, Replicative DNA helicase DnaB (Mycobacterium tuberculosis, UniProt P9WMR3)", "T3 sequence (P9WMR3 whole entry)": "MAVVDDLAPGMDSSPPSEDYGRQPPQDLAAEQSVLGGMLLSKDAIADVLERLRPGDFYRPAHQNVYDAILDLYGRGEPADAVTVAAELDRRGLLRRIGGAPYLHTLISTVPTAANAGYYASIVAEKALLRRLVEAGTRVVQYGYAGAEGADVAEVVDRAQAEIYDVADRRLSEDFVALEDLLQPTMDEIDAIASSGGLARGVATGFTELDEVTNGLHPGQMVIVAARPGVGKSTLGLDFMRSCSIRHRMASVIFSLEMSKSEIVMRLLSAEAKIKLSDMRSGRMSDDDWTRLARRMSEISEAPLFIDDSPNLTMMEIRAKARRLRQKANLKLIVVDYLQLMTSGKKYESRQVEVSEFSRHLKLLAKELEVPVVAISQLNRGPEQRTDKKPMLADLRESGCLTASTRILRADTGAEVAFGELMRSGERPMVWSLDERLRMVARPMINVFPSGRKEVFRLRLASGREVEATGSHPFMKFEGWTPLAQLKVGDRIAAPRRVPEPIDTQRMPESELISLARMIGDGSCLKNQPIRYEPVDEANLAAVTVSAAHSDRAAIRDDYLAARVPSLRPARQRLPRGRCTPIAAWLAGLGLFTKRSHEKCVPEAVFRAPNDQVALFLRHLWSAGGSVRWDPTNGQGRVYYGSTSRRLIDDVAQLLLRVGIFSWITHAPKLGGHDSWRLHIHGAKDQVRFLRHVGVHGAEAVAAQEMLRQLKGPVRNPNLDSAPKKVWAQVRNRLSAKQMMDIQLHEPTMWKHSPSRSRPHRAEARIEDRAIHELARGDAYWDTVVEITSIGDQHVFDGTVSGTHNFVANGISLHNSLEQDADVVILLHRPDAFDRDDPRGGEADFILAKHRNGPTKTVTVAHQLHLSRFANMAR", "assay": "DnaB intein splicing inhibitors, dose response, biochemical, cell-free fluorescence (AID 449749)", "type": "functional"}, "[4]": {"biological_target": "T4, Protein RecA (Mycobacterium tuberculosis, UniProt P9WHJ3)", "T4 sequence (P9WHJ3 whole entry)": "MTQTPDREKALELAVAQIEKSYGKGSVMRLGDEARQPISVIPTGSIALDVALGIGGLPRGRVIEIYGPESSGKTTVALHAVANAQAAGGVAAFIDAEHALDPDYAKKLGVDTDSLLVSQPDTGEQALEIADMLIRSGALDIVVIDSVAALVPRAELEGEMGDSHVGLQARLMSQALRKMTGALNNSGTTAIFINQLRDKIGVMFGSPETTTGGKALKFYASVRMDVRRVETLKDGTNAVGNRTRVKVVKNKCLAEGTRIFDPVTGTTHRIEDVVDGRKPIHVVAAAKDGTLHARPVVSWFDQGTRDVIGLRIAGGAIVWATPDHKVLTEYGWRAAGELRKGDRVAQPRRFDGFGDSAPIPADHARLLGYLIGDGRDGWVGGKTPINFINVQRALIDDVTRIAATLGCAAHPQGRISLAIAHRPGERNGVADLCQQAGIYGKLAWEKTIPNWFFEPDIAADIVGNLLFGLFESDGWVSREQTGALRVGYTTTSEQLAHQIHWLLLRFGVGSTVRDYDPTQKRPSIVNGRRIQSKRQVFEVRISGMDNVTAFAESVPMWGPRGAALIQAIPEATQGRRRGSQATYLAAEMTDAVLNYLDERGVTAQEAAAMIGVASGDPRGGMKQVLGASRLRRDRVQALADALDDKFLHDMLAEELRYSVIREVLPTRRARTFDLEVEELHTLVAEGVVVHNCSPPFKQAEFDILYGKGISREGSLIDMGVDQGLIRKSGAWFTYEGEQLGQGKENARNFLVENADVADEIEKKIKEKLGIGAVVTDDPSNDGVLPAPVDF", "assay": "Fluorescence Cell-Free Homogeneous Dose Retest to Identify Inhibitors of RecA-Intein Splicing Activity. [Related pubchem assays (depositor defined):AID2097, AID2223, AID489010, AID492950]", "type": "functional"}, "[5]": {"test_system": "Streptococcus sp. 'group A'", "assay": "growth inhibition of control SK(-) GAS strain, dose response, counter-screen for streptokinase expression inhibitor project, luminescence, kanamycin, BacTiterGlo, confirmation (AID 1900)", "type": "functional, organism-based"}, "[6]": {"biological_target": "T5, Streptokinase A (Streptococcus pyogenes serotype M1, UniProt P10520)", "T5 sequence (P10520 whole entry)": "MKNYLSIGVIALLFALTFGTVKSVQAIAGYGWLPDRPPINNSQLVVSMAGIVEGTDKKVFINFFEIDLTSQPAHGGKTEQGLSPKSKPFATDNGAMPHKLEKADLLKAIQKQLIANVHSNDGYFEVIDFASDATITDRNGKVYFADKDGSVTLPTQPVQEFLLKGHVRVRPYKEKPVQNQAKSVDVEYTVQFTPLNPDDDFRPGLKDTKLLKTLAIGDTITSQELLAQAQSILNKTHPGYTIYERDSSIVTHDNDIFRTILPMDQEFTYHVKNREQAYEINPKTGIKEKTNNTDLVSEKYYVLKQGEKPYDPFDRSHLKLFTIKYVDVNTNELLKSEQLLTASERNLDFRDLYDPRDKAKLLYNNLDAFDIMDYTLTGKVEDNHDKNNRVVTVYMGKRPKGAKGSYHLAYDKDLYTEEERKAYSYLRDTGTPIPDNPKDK", "assay": "S. pyogenes streptokinase expression inhibitors, potency, dose response, plasminogen activation absorbance, OD405 (AID 1914);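 further: secreted streptokinase activity via plasminogen activation per viability signal from cell pellet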", "type": "functional, Streptococcus pyogenes M1 GAS"}, "[7]": {"test_system": "Streptococcus", "assay": "Group A Streptococcus viability loss, dose response, counter-screen for streptokinase expression inhibitor project, luminescence, BacTiterGlo (AID 1915);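 further: potency for reduction of bacterial viability or growth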", "type": "functional, organism-based"}, "[8]": {"assay": "microbe, parasite or virus in culture", "type": "functional", "settings": "Mycobacterium tuberculosis"}}, "note": "Active and inactive are the calls of the source.", "data": [{"smiles": "CCOc1ccc(NC(=NCc2ccc3c(c2)OCO3)SC2CC(=O)N(c3ccccc3)C2=O)cc1", "note": "(stereo not given)", "values": [{"measurement": "IC50", "setting": "[1]", "result": "> 50 µM (not active)"}]}, {"smiles": "CN1CCN(CCc2nc3cc(NC(=O)c4ccco4)ccc3n2C)CC1", "values": [{"measurement": "IC50", "setting": "[1]", "result": "> 50 µM (not active)"}]}, {"smiles": "COc1cc(/C=C/C(=O)OCC(=O)Nc2cc(S(=O)(=O)N3CCCCC3)ccc2C)ccc1O", "values": [{"measurement": "IC50", "setting": "[2]", "result": "68.1 µM (active)"}]}, {"smiles": "COc1ccc(-c2cc(CNC(=O)CCl)on2)cc1", "values": [{"measurement": "AC50", "setting": "[3]", "result": "262 µM (active)"}, {"measurement": "EC50", "setting": "[4]", "result": "17.7 µM (active)"}]}, {"smiles": "COc1ccc(/C=C2/C(=O)N(Cc3ccccc3)N=C2C)cc1", "values": [{"measurement": "AC50", "setting": "[3]", "result": "4.12 µM (active)"}, {"measurement": "EC50", "setting": "[4]", "result": "1.91 µM (active)"}]}, {"smiles": "O=C(OCc1nnn(Cc2ccccc2)c1-c1c(COC(=O)c2ccccc2)nnn1Cc1ccccc1)c1ccccc1", "values": [{"measurement": "IC50", "setting": "[1]", "result": "2.52 µM (not active)"}]}, {"smiles": "Cc1ccc(CN=C(S)Nc2ccc(NS(=O)(=O)c3ccc(C)cc3)cc2)cc1", "values": [{"measurement": "EC50", "setting": "[5]", "result": "9.78 µM (active)"}, {"measurement": "EC50", "setting": "[6]", "result": "> 150 µM (not active)"}, {"measurement": "EC50", "setting": "[7]", "result": "17.6 µM (active)"}]}, {"smiles": "O=C(NC(=S)N1CCN(c2ccc(F)cc2)CC1)C12CC3CC(CC(C3)C1)C2", "values": [{"measurement": "EC50", "setting": "[5]", "result": "29.7 µM (active)"}, {"measurement": "EC50", "setting": "[6]", "result": "> 150 µM (not active)"}, {"measurement": "EC50", "setting": "[7]", "result": "> 150 µM (not active)"}]}, {"smiles": "CCc1ccc2nc(N3C(=O)C(O)=C(C(=O)c4ccco4)C3c3cccs3)sc2c1", "note": "(stereo not given)", "values": [{"measurement": "EC50", "setting": "[5]", "result": "2.2 µM (active)"}, {"measurement": "EC50", "setting": "[6]", "result": "> 150 µM (not active)"}, {"measurement": "CC50", "setting": "[8]", "result": "> 40 µM (active)"}, {"measurement": "EC50", "setting": "[7]", "result": "7.12 µM (active)"}]}, {"smiles": "CN(c1ccccc1)c1ccc([N+](=O)[O-])c2nonc12", "values": [{"measurement": "AC50", "setting": "[3]", "result": "74.7 µM (active)"}, {"measurement": "EC50", "setting": "[4]", "result": "5.22 µM (active)"}]}, {"smiles": "Cc1ccc(Oc2ccc3c(c2)C(=O)N(c2ccc(S(=O)(=O)Nc4nccs4)cc2)C3=O)cc1", "values": [{"measurement": "EC50", "setting": "[5]", "result": "9.43 µM (active)"}, {"measurement": "EC50", "setting": "[6]", "result": "> 150 µM (not active)"}, {"measurement": "EC50", "setting": "[7]", "result": "20 µM (active)"}]}, {"smiles": "CC(NS(=O)(=O)/C=C/c1ccccc1)C(=O)O", "note": "(stereo not given)", "values": [{"measurement": "EC50", "setting": "[5]", "result": "> 150 µM (not active)"}, {"measurement": "EC50", "setting": "[6]", "result": "> 150 µM (not active)"}, {"measurement": "EC50", "setting": "[7]", "result": "> 150 µM (not active)"}]}, {"smiles": "CC(C)c1ccc(C(=O)NC(=S)NCc2cccnc2)cc1", "values": [{"measurement": "IC50", "setting": "[1]", "result": "27 µM (not active)"}]}, {"smiles": "Cc1ccc(C2=NN=C(NC(=O)CSc3nncn3C)SC2)cc1", "values": [{"measurement": "IC50", "setting": "[2]", "result": "256 µM (active)"}]}, {"smiles": "O=C(CN1CCN(Cc2ccccc2)CC1)NC(c1ccccc1)c1ccccc1", "values": [{"measurement": "IC50", "setting": "[2]", "result": "77.1 µM (active)"}]}, {"smiles": "CC(CCc1ccccc1)NC(=O)/C=C/c1ccc(F)cc1", "note": "(stereo not given)", "values": [{"measurement": "IC50", "setting": "[1]", "result": "27.6 µM (not active)"}]}]}
